These results are taken from PubChem BioAssay (NCI).

Among the test systems are A498 renal; TK-10 renal; M14 melanoma; MDA-MB-435; PC-3 prostate; HOP-92 NSCLC; NCI-H522 lung; DU-145 prostate; MDA-N; BT-549 breast.
Common to all, as to experiment: NCI-60 cell line screen, 48 h

Molecules are shown by their SMILES.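 Protocol summary: plate cells (96-well), add compound at 5 concentrations, incubate 48 h, interpolate endpoints linearly. The concentration for full growth arrest is given as TGI.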 Where only a bound is given, the exact number is not on record here.

As for `O=c1cc(-c2c[nH]c3ccccc23)[nH]c2cc3c(cc12)OCO3`, the TGI with A498 renal, in the test on TK-10 renal and with M14 melanoma was above 100 µM in each case.
Turning to `COC(=O)CCc1ccc2c(c1)C(=O)CC2`, the TGI with A498 renal, with TK-10 renal, in the test on MDA-MB-435, with PC-3 prostate, in the test on HOP-92 NSCLC and in the test on NCI-H522 lung was above 100 µM throughout. Also, the TGI in the test with M14 melanoma, in the test with DU-145 prostate and in the test with MDA-N was above 100 µM throughout.
With `CCOP(=O)(OCC)C(c1ccccc1)N(C(=O)NC(F)(F)F)c1cccc(F)c1` (centres undefined), the TGI in the test with TK-10 renal, in the test on MDA-MB-435, in the test with PC-3 prostate, with NCI-H522 lung, in the test on M14 melanoma and in the test with DU-145 prostate was above 100 µM throughout. Besides, the TGI with MDA-N was above 100 µM.
In the case of `Cc1c(CCO)c(=O)n2c([nH]c3ccccc32)c1C#N`, the TGI in the test on A498 renal, with TK-10 renal, in the test with HOP-92 NSCLC, in the test on NCI-H522 lung and with M14 melanoma was above 100 µM in each case.
On to `CCCC(C)n1c(C)nc2c1C(=O)c1ccccc1C2=O` (centres undefined), for which the TGI is above 100 µM in the test on TK-10 renal, 66.8 µM in the test on HOP-92 NSCLC, 97 µM with NCI-H522 lung and 93.7 µM with M14 melanoma.
In the case of `O=c1[nH]c(=O)n(C2CC(O)C(CO)O2)cc1NN=NCCCc1ccccc1` (centres undefined), the TGI with A498 renal, with TK-10 renal, with MDA-MB-435, in the test with PC-3 prostate, with HOP-92 NSCLC and in the test with M14 melanoma was above 100 µM throughout. Also, the TGI in the test with DU-145 prostate and with MDA-N was above 100 µM in each case.
Take `COc1cc(CNc2cnc3cc(N)ccc3n2)cc(OC)c1OC`: the TGI is above 100 µM in the test with A498 renal; above 100 µM in the test with TK-10 renal; above 100 µM in the test on HOP-92 NSCLC; 74.5 µM in the test on NCI-H522 lung; 74.3 µM in the test on M14 melanoma.
Turning to `O=C1c2ccccc2C(=O)c2c(O)c(NCCCNCCO)cc(O)c21`, the TGI is 33.1 µM with A498 renal, 22.1 µM with TK-10 renal, 31.7 µM with HOP-92 NSCLC and 36.6 µM in the test on M14 melanoma.
In the case of `COc1cc(C2=NNC(=O)c3ccccc3N2c2nc(-c3cccs3)nc3ccc(Br)cc23)cc(OC)c1OC`, the TGI in the test on A498 renal is 91.9 µM; in the test on TK-10 renal it was 89.9 µM; in the test with MDA-MB-435, 68.5 µM; with PC-3 prostate, above 100 µM; in the test with HOP-92 NSCLC, 27.7 µM; in the test on BT-549 breast it was above 100 µM. For the same molecule, the results for the TGI in the test on NCI-H522 lung, in the test on M14 melanoma and with DU-145 prostate were above 100 µM, 73.8 µM and 87.9 µM, respectively.
Consider `O=C(/C=C/c1ccco1)c1ccc(NCc2nc3ccccc3[nH]2)cc1`, for which the TGI with A498 renal came to 27.5 µM; in the test on TK-10 renal, 39.1 µM; with HOP-92 NSCLC, 30.6 µM; in the test with NCI-H522 lung it was 21.4 µM; in the test on M14 melanoma it was 30.9 µM.
As to `CC(=O)NC1C(OCc2ccccc2)OC(CO)C(O)C1OC(C)C(=O)N[C@@H](C)C(=O)N[C@H](CCC(=O)OCCNc1c2ccccc2nc2cccc([N+](=O)[O-])c12)C(N)=O` (some centres undefined), the TGI turned out to be 0.0199 µM in the test on A498 renal; 0.0631 µM in the test on TK-10 renal; 0.00616 µM in the test on HOP-92 NSCLC; 0.00669 µM in the test on NCI-H522 lung; 0.00251 µM with M14 melanoma.
On to `CN(C)c1ccc(C=C2C(=O)N(c3ccccc3)N(c3ccccc3)C2=O)cc1`, for which the TGI in the test on A498 renal is above 100 µM; with TK-10 renal, above 100 µM; in the test on MDA-MB-435, above 100 µM; in the test with PC-3 prostate, above 100 µM; with HOP-92 NSCLC, 65.1 µM; in the test on NCI-H522 lung, above 100 µM. In addition, the TGI in the test with M14 melanoma, with DU-145 prostate and in the test on MDA-N was above 100 µM in each case.
As to `CCOC(=O)C[n+]1cccc(C2(c3cc4ccccc4[nH]3)OCCO2)c1`, the TGI in the test with A498 renal, with TK-10 renal, with MDA-MB-435, in the test with PC-3 prostate, with HOP-92 NSCLC and in the test with BT-549 breast was above 100 µM each time. The TGI in the test on M14 melanoma and in the test on DU-145 prostate was above 100 µM in each case.
`C=C1C(=O)O[C@H]2[C@H]3O[C@@H](C[C@@H]12)[C@@]1(C)CC[C@H](O1)[C@H](C)CCC[C@H]3C`: the TGI in the test on A498 renal worked out at 3.17 µM; in the test with TK-10 renal it was 2.98 µM; in the test on MDA-MB-435, 2.61 µM; with PC-3 prostate, 3.01 µM; in the test with HOP-92 NSCLC it was 3.48 µM; with BT-549 breast it was 2.17 µM. Also, the results for the TGI in the test with NCI-H522 lung and in the test with DU-145 prostate were 2.84 µM and 2.86 µM, respectively.
In the case of `COC(=O)/C(=N/Nc1cccc(Cl)c1)C(C(=O)C(=O)Nc1cccc(Cl)c1C)c1nc2ccccc2nc1C` (centres undefined), the TGI in the test with A498 renal, with TK-10 renal, with NCI-H522 lung and in the test with M14 melanoma was above 100 µM in each case.
Take `COC(=O)C1C=CCON2CCc3c(n(C)c4ccccc34)C12` (centres undefined): the TGI in the test on A498 renal, with TK-10 renal, with HOP-92 NSCLC, in the test on NCI-H522 lung and in the test with M14 melanoma was above 100 µM each time.
As for `O=C1Nc2ccccc2Cn2c1cc1oc(-c3ccccc3)cc12`, the TGI in the test on A498 renal was above 100 µM; in the test with TK-10 renal, above 100 µM; in the test on MDA-MB-435 it was above 100 µM; in the test on PC-3 prostate, above 100 µM; with HOP-92 NSCLC it was 73.7 µM; with NCI-H522 lung it was above 100 µM. Also, the TGI in the test with DU-145 prostate and in the test with MDA-N was above 100 µM throughout.
In the case of `CC1(C)O[C@@H](CCl)C[C@H](C#N)O1`, the TGI in the test on A498 renal, in the test with TK-10 renal, with HOP-92 NSCLC, with NCI-H522 lung and in the test on M14 melanoma was above 100 µM throughout.
Turning to `CSCCCS/C1=C/CCCCCCCCCC1`, the TGI in the test on A498 renal, in the test on TK-10 renal, in the test with MDA-MB-435, in the test on PC-3 prostate, in the test with HOP-92 NSCLC and in the test on M14 melanoma was above 100 µM throughout. Further, the TGI with DU-145 prostate and in the test on MDA-N was above 100 µM each time.
